Where “and” joins values, the source holds several entries; their conditions need not be identical. Identical values can stand only once. Toxic doses and inconclusive results are not listed. Rule for the calls: active = survival T/C of 150% or more; inactive = T/C below 125% in these data.
System: CD2F1 mice, L1210 leukemia ip, survival T/C
Assay: NCI In Vivo Anticancer Drug Screen. Data for tumor model L1210 Leukemia (intraperitoneal) in CD2F1 (CDF1) mice
Settings: endpoint: mean survival time, higher = longer survival
Method in brief: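 Ratio T/C, where T is the treated-group value and C the vehicle-dosed control value, from mice implanted with a transplantable tumor.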

[1] = dose: 100.0 mg/kg/injection, schedule: Q01DX009 (ip), vehicle: saline with Tween-80
[2] = dose: 200.0 mg/kg/injection, schedule: Q01DX009 (ip), vehicle: saline with Tween-80
[3] = dose: 400.0 mg/kg/injection, schedule: Q01DX009 (ip), vehicle: saline with Tween-80
[4] = dose: 100.0 mg/kg/injection, schedule: Q01DX001 (ip), vehicle: saline
[5] = dose: 200.0 mg/kg/injection, schedule: Q01DX001 (ip), vehicle: saline
[6] = dose: 400.0 mg/kg/injection, schedule: Q01DX001 (ip), vehicle: saline
[7] = dose: 100.0 mg/kg/injection, schedule: Q01DX009 (ip), vehicle: saline
[8] = dose: 200.0 mg/kg/injection, schedule: Q01DX009 (ip), vehicle: saline
[9] = dose: 400.0 mg/kg/injection, schedule: Q01DX009 (ip), vehicle: saline

Measured: T/C

O=C(CBr)Nc1ccc2[nH]c3cnccc3c2c1
inactive: dose: 100.0 mg/kg/injection, schedule: Q04DX002 (ip), vehicle: saline with Tween-80 101 % of control | dose: 200.0 mg/kg/injection, schedule: Q04DX002 (ip), vehicle: saline with Tween-80 104 % of control | dose: 400.0 mg/kg/injection, schedule: Q04DX002 (ip), vehicle: saline with Tween-80 97 % of control

Cc1ccc(S(=O)(=O)N=N/C=C2/C=CC=CN2O)cc1
inactive: dose: 20.0 mg/kg/injection, schedule: Q01DX009 (ip), vehicle: Klucel (hydroxypropylcellulose) (HPC) 105 % of control | dose: 40.0 mg/kg/injection, schedule: Q01DX009 (ip), vehicle: Klucel (hydroxypropylcellulose) (HPC) 108 % of control | dose: 45.0 mg/kg/injection, schedule: Q01DX009 (ip), vehicle: Klucel (hydroxypropylcellulose) (HPC) 114 % of control | dose: 87.5 mg/kg/injection, schedule: Q01DX009 (ip), vehicle: Klucel (hydroxypropylcellulose) (HPC) 121 % of control

O=C(CNC(=O)NCc1ccco1)NNC(=O)Nc1ccc(F)c(Cl)c1
inactive: [1] 93 % of control | [2] 88 % of control | [3] 96 % of control

CC1(C)CC(Br)(Cc2ccccc2)C(=O)c2ccccc21 (centres undefined)
inactive: [1] 95 % of control | [2] 94 % of control | [3] 94 % of control

CCCCCCCCCCCCS(=O)(=O)O
inactive: dose: 100.0 mg/kg/injection, schedule: Q04DX003 (ip), vehicle: saline with Tween-80 119 % of control | dose: 200.0 mg/kg/injection, schedule: Q04DX003 (ip), vehicle: saline with Tween-80 119 % of control

O=c1oc(-c2cc([N+](=O)[O-])ccc2Cl)nc2ccccc12
inactive: dose: 50.0 mg/kg/injection, schedule: Q01DX009 (ip), vehicle: saline with Tween-80 95 % of control | [1] 90 % of control | [2] 95 % of control

O=C1C=C(N2C3C4CCC(C4)C32)C(=O)C=C1c1ccccc1 (centres undefined)
inactive: dose: 50.0 mg/kg/injection, schedule: Q01DX001 (ip), vehicle: saline with Tween-80 96 % of control and 98 % of control and 108 % of control | dose: 100.0 mg/kg/injection, schedule: Q01DX001 (ip), vehicle: saline with Tween-80 121 % of control and 94 % of control and 96 % of control | dose: 200.0 mg/kg/injection, schedule: Q01DX001 (ip), vehicle: saline with Tween-80 115 % of control and 97 % of control and 102 % of control | dose: 400.0 mg/kg/injection, schedule: Q01DX001 (ip), vehicle: saline with Tween-80 102 % of control

CCCCCCC(=O)/C=C/c1cccc(Cl)c1
inactive: dose: 100.0 mg/kg/injection, schedule: Q04DX003 (ip), vehicle: Klucel (hydroxypropylcellulose) (HPC) 104 % of control | dose: 200.0 mg/kg/injection, schedule: Q04DX003 (ip), vehicle: Klucel (hydroxypropylcellulose) (HPC) 102 % of control | dose: 400.0 mg/kg/injection, schedule: Q04DX003 (ip), vehicle: Klucel (hydroxypropylcellulose) (HPC) 91 % of control

CCOC(=O)C(Cc1cccc2ccccc12)P(=O)(OCC)OCC (centres undefined)
inactive: [4] 108 % of control | [5] 108 % of control | [6] 106 % of control

Clc1ccc(SC=C(Sc2ccc(Cl)cc2)Sc2ccc(Cl)cc2)cc1
inactive: dose: 100.0 mg/kg/injection, schedule: Q04DX002 (ip), vehicle: other 94 % of control | dose: 200.0 mg/kg/injection, schedule: Q04DX002 (ip), vehicle: other 94 % of control | dose: 400.0 mg/kg/injection, schedule: Q04DX002 (ip), vehicle: other 87 % of control

N=C(N)SCc1cccs1
inactive: dose: 25.0 mg/kg/injection, schedule: Q01DX009 (ip), vehicle: saline 100 % of control | dose: 50.0 mg/kg/injection, schedule: Q01DX009 (ip), vehicle: saline 103 % of control | [7] 95 % of control

COC1OCC(O)C(O)C1O (centres undefined)
inactive: [7] 101 % of control | [8] 98 % of control | [9] 98 % of control

O=C1OC(C(O)CO)C(O)=C1O (centres undefined)
inactive: [4] 101 % of control | [7] 93 % of control and 108 % of control | dose: 100.0 mg/kg/injection, schedule: Q04DX002 (ip), vehicle: saline 109 % of control and 112 % of control | dose: 100.0 mg/kg/injection, schedule: Q04DX003 (ip), vehicle: saline 106 % of control | [5] 101 % of control | [8] 86 % of control and 102 % of control | dose: 200.0 mg/kg/injection, schedule: Q04DX002 (ip), vehicle: saline 97 % of control and 104 % of control | dose: 200.0 mg/kg/injection, schedule: Q04DX003 (ip), vehicle: saline 98 % of control | [6] 106 % of control | [9] 89 % of control and 96 % of control | dose: 400.0 mg/kg/injection, schedule: Q04DX002 (ip), vehicle: saline 96 % of control and 102 % of control | dose: 400.0 mg/kg/injection, schedule: Q04DX003 (ip), vehicle: saline 98 % of control

Source: PubChem BioAssay AID256 (DTP/NCI, 2004)
